Entries after “also recorded” stand apart in the source; their conditions may differ.
Key:
[1] = biological target: eeAChE (Electrophorus electricus, UniProt O42275); test: eeAChE inhibition, modified Ellman's method; format: biochemical, electric eel
[2] = system: LPS-induced NO production of mouse microglia cells (BV-2); test: LPS-induced NO production in BV-2 microglia; format: cell-based; conditions: for NO production: 10 μM compound, LPS-induced BV-2 cells; for inhibition at 10 µM: Mus musculus, BV-2, read-out: NO inhibition
[3] = biological target: huBuChE (Homo sapiens, UniProt P06276); test: huBuChE inhibition, modified Ellman's method; format: biochemical
Sequence of huBuChE (P06276 29-602): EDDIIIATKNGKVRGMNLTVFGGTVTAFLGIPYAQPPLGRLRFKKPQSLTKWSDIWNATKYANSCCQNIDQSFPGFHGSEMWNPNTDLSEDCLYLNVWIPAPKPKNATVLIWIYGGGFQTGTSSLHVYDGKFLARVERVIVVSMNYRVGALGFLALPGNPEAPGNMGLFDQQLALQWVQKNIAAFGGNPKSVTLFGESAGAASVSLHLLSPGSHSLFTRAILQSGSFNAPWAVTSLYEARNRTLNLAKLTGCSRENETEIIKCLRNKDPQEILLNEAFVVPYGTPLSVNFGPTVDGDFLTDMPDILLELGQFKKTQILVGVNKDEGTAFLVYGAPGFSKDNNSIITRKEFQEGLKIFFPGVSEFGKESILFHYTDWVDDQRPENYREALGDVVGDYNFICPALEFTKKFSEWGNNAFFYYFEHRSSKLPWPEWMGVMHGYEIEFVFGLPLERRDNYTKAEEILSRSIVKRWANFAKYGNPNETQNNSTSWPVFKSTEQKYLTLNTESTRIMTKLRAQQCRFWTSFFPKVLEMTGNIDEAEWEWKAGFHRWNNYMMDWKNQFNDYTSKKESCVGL

[4] = biological target: T1, eqBuChE (Equus caballus, UniProt P81908); test: eqBuChE inhibition, modified Ellman's method; format: biochemical, equine
T1 sequence (P81908 whole entry): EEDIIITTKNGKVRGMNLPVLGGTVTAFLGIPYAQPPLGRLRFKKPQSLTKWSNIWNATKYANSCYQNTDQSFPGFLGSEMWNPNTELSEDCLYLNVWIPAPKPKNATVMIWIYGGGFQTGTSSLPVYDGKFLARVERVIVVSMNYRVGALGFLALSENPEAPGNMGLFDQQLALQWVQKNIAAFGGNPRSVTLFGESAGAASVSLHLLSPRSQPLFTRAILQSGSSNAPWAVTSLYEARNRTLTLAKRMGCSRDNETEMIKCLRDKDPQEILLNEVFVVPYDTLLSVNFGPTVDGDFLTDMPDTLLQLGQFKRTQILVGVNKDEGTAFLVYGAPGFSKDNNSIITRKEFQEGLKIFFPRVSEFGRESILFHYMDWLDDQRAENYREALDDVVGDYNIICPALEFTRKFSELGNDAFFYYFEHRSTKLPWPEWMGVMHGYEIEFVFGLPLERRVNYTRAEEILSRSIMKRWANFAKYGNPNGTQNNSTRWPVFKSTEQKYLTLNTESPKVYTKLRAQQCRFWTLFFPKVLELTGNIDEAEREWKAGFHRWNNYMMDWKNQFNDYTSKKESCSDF

[5] = biological target: T1, eqBuChE; test: Kinetics of BuChE inhibition; format: biochemical, equine
[6] = PAMPA-BBB in vitro blood-brain barrier permeation assay; conditions: for Papp at 10 h, 25 μg/mL: pH 7.4; for CNS (±): PAMPA-BBB classification from Pe
[7] = system: scopolamine-induced cognitive impairment mouse model; test: Morris water maze test in scopolamine-induced cognitive impairment mouse model; format: in vivo, C57BL/6J mice; conditions: scopolamine 5 mg/kg i.p.; for escape latency to the platform: fifth day of training trials; for number of crossing the platform: last day without platform
[8] = system: ICR mice; test: Acute toxicity test; conditions: ICR mice
[9] = Acute toxicity test; conditions: both, ICR, mouse, in vivo, po, 1000 mg/kg
[10] = system: BV-2 cells; test: BV-2 cell viability; conditions: 10 μM, MTT, 24 h
[11] = PAMPA-BBB reported values; ref [35],[36]; cited from earlier work

Sequence of eeAChE (O42275 24-633): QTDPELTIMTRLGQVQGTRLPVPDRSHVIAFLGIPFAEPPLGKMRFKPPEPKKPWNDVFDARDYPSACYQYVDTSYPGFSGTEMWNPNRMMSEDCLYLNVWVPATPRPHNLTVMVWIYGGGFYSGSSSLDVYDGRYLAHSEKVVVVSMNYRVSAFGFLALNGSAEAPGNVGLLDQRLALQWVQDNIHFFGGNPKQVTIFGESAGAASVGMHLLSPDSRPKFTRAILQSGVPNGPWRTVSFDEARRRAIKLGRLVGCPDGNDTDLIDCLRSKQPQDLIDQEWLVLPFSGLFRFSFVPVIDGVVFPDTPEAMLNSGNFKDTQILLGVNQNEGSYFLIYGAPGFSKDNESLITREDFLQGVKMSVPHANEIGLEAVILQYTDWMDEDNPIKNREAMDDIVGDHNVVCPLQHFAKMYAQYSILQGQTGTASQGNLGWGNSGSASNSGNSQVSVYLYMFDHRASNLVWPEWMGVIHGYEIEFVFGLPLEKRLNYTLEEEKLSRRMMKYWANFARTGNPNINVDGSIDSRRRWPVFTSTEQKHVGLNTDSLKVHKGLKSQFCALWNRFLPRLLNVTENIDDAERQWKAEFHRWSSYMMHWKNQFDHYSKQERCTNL

Row | Structure (SMILES) | IC50 [1] | NO production [2] | IC50 [3] | IC50 [4] | further results
1 | Cc1cc(=O)c(OCc2ccccc2)c(CCc2cccc(OC(=O)N3CCCCC3)c2)o1 [Compound 7s, 3–(2-(3-(Benzyloxy)-6-methyl-4-oxo-4H-pyran-2-yl)ethyl)phenyl piperidine-1-carboxylate] | > 20000 nM | 77.77% | 11 ± 1.7 nM | 12.3 ± 3.12 nM | 
2 | O=C(Oc1cccc(/C=C/c2oc(CO)cc(=O)c2OCc2ccccc2)c1)N1CCCCC1 [Compound 7m, (E)-3–(2-(3-(benzyloxy)-6-(hydroxymethyl)-4-oxo-4H-pyran-2-yl)vinyl)phenyl piperidine-1-carboxylate] | > 20000 nM | 76.97% | 16.5 ± 5.44 nM | 5.22 ± 1.72 nM | 
3 | COc1c(/C=C/c2cccc(OC(=O)N3CCCCC3)c2)oc(C)cc1=O [Compound 7p, (E)-3-(2-(3-methoxy-6-methyl-4-oxo-4H-pyran-2-yl)vinyl)phenyl piperidine-1-carboxylate] | > 20000 nM | 71.18% | 9.12 ± 0.57 nM | 4.68 ± 1.39 nM | Ki [5]: 3.15 nM; Kib (inhibition constant for the enzyme-substrate complex) ([5]; Cornish-Bowden plot): 3.84 nM; type of BuChE inhibition ([5]; Dixon and Cornish-Bowden plots): mix-type; also recorded: mixed-type inhibition; inhibition at 10 µM [2]: 28.8%; BBB permeability in the PAMPA-BBB assay (in words) ([6]; PAMPA): high BBB permeability; Papp at 10 h, 25 μg/mL ([6]; PAMPA): 5.7 ± 0.43 ×10⁻⁶ cm/s; CNS (±) [6]: CNS + (CNS +: (high BBB permeability), Pe (×10^−6 cm/s) > 3.95); escape latency to the platform ([7]; 1 mg/kg oral once daily): 30.24 s; number of crossing the platform ([7]; 1 mg/kg oral once daily): 3.3 times; escape latency to the platform ([7]; 5 mg/kg oral once daily): 29.12 s; number of crossing the platform ([7]; 5 mg/kg oral once daily): 3.5 times; abnormal behaviours or deaths after administration ([8]; 1000 mg/kg intragastric single dose, 14 d): no abnormal behaviours or deaths; pathological changes in heart, liver, spleen and brain (HE staining) ([8]; 1000 mg/kg, after 14 d, compared with control group): did not observe obvious pathological changes; LD50 at 14 d [9]: > 1000 mg/kg; fold increase in inhibiting huBuChE ([3]; relative to compound 7g): 4 fold; fold increase in inhibiting eqBuChE ([4]; relative to compound 7g): 3 fold
4 | C[C@]12CCC(=O)C=C1CC[C@@H]1[C@@H]2[C@@H](O)C[C@@]2(C)[C@H]1CC[C@]2(O)C(=O)CO [hydrocortisone, Hydrocortisone, reference compound] |  | 70.25% |  |  | cell viability compared to the control group [10]: no significant differences
5 | Cc1cc(=O)c(OCc2ccc3ccccc3c2)c(/C=C/c2cccc(OC(=O)N3CCCCC3)c2)o1 [Compound 7n, (E)-3–(2-(6-methyl-3-(naphthalen-2-ylmethoxy)-4-oxo-4H-pyran-2-yl)vinyl)phenyl piperidine-1-carboxylate] | > 20000 nM |  | 39.4 ± 4.2 nM | 18.9 ± 5.98 nM | 
6 | CCN(CC)C(=O)Oc1cccc(/C=C/c2oc(C)cc(=O)c2OCc2ccccc2)c1 [Compound 7c, (E)-3–(2-(3-(benzyloxy)-6-methyl-4-oxo-4H-pyran-2-yl)vinyl)phenyl diethylcarbamate] | > 20000 nM |  | > 10000 nM | 652 ± 44.5 nM | 
7 | Cc1cc(=O)c(OCc2ccccc2)c(/C=C/c2cccc(OCC(=O)N3CCCCC3)c2)o1 [Compound 7k, (E)-3-(benzyloxy)-6-methyl-2–(3–(2-oxo-2-(piperidin-1-yl)ethoxy)styryl)-4H-pyran-4-one] | > 20000 nM | 64.59% | 486 ± 46.2 nM | 1430 ± 131 nM | inhibition at 10 µM [2]: 35.4%
8 | Cc1cc(=O)c(OCc2ccccc2)c(-c2ccc3ccc(OC(=O)N4CCCCC4)cc3c2)o1 [Compound 7q, 7–(3-(Benzyloxy)-6-methyl-4-oxo-4H-pyran-2-yl)naphthalen-2-yl piperidine-1-carboxylate] | > 20000 nM |  | 230 ± 29.9 nM | 41.7 ± 11.3 nM | 
9 | CN1C(C(=O)Nc2ccccn2)=C(O)c2ccccc2S1(=O)=O [Piroxicam] |  |  |  |  | Papp at 10 h, 25 μg/mL ([6]; PAMPA): 2.16 ± 0.04 ×10⁻⁶ cm/s; CNS (±) [6]: CNS +/-; Pe(ref.) [11]: 2.5e-06 cm/s
10 | Cc1cc(=O)c(OCc2ccc(-c3ccccc3)cc2)c(/C=C/c2cccc(OC(=O)N3CCCCC3)c2)o1 [Compound 7o, (E)-3–(2-(3-([1,1′-biphenyl]-4-ylmethoxy)-6-methyl-4-oxo-4H-pyran-2-yl)vinyl)phenyl piperidine-1-carboxylate] | > 20000 nM |  | 37.9 ± 5.37 nM | 19.2 ± 1.91 nM | 
11 | CCN(C)C(=O)Oc1cccc([C@H](C)N(C)C)c1 [Rivastigmine, reference compound] |  |  |  |  | escape latency to the platform ([7]; 1 mg/kg oral once daily): 31.15 s; number of crossing the platform ([7]; 1 mg/kg oral once daily): 3.0 times
12 | O=C(Oc1cccc(/C=C/c2occc(=O)c2OCc2ccccc2)c1)N1CCCCC1 [Compound 7l, (E)-3–(2-(3-(benzyloxy)-4-oxo-4H-pyran-2-yl)vinyl)phenyl piperidine-1-carboxylate] | > 20000 nM |  | 6.93 ± 1.57 nM | 8.1 ± 2.75 nM | 
13 | Cc1cc(=O)c(OCc2ccccc2)c(/C=C/c2cccc(OC(=O)N(C(C)C)C(C)C)c2)o1 [Compound 7d, (E)-3–(2-(3-(benzyloxy)-6-methyl-4-oxo-4H-pyran-2-yl)vinyl)phenyl diisopropylcarbamate] | > 20000 nM | 80.01% | > 10000 nM | 8530 ± 314 nM | 
14 | Cn1c(=O)c2[nH]cnc2n(C)c1=O [Theophylline] |  |  |  |  | Pe(ref.) [11]: 0.12 ± 0.01 ×10^−6 cm/s
15 | Cc1cc(=O)c(OCc2ccccc2)c(/C=C/c2cccc(OC(=O)N(c3ccccc3)c3ccccc3)c2)o1 [Compound 7e, (E)-3–(2-(3-(benzyloxy)-6-methyl-4-oxo-4H-pyran-2-yl)vinyl)phenyl diphenylcarbamate] | > 20000 nM | 106.16% | > 10000 nM | > 10000 nM | 
16 | Cc1cc(=O)c(OCc2ccccc2)c(/C=C/c2cccc(OC(=O)N3CCCCC3)c2)o1 [Compound 7g, (E)-3–(2-(3-(benzyloxy)-6-methyl-4-oxo-4H-pyran-2-yl)vinyl)phenyl piperidine-1-carboxylate] | > 20000 nM | 90.09% | 38.7 ± 2.08 nM | 15.3 ± 0.75 nM | 
17 | Cc1cc(=O)c(OCc2ccccc2)c(/C=C/c2cccc(OC(=O)N3CCCC3)c2)o1 [Compound 7f, (E)-3–(2-(3-(benzyloxy)-6-methyl-4-oxo-4H-pyran-2-yl)vinyl)phenyl pyrrolidine-1-carboxylate] | > 20000 nM |  | 156 ± 36 nM | 31.4 ± 5.97 nM | 
18 | Cc1cc(=O)c(OCc2ccccc2)c(/C=C/c2cccc(OC(=O)N(C)C)c2)o1 [Compound 7a, (E)-3–(2-(3-(benzyloxy)-6-methyl-4-oxo-4H-pyran-2-yl)vinyl)phenyl dimethylcarbamate] | > 20000 nM | 90.31% | 99.4 ± 20.6 nM | 24.6 ± 6.66 nM | 
19 | Cc1cc(=O)c(OCc2ccccc2)c(/C=C/c2cccc(OC(=O)N3CCN(Cc4ccccc4)CC3)c2)o1 [Compound 7j, (E)-3–(2-(3-(benzyloxy)-6-methyl-4-oxo-4H-pyran-2-yl)vinyl)phenyl 4-benzylpiperazine-1-carboxylate] | > 20000 nM |  | 733 ± 59.8 nM | 31.8 ± 6.92 nM | 
20 | Cc1cc(=O)c(OCc2ccccc2)c(/C=C/c2cccc(OC(=O)N3CCC(Cc4ccccc4)CC3)c2)o1 [Compound 7i, (E)-3–(2-(3-(benzyloxy)-6-methyl-4-oxo-4H-pyran-2-yl)vinyl)phenyl 4-benzylpiperidine-1-carboxylate] | > 20000 nM |  | 374 ± 6.45 nM | 75.2 ± 11.9 nM | 
21 | Cc1cc(=O)c(OCc2ccccc2)c(/C=C/c2cccc(OC(=O)N3CCOCC3)c2)o1 [Compound 7h, (E)-3–(2-(3-(benzyloxy)-6-methyl-4-oxo-4H-pyran-2-yl)vinyl)phenyl morpholine-4-carboxylate] | > 20000 nM |  | > 10000 nM | 72.6 ± 9.39 nM | 
22 | Cc1cc(=O)c(OCc2ccccc2)c(-c2ccc(-c3cccc(OC(=O)N4CCCCC4)c3)cc2)o1 [Compound 7r, 4′-(3-(Benzyloxy)-6-methyl-4-oxo-4H-pyran-2-yl)-[1,1′-biphenyl]-3-yl piperidine-1-carboxylate] | > 20000 nM |  | 651 ± 157 nM | 94.3 ± 20.9 nM | 
23 | CCN(C)C(=O)Oc1cccc(/C=C/c2oc(C)cc(=O)c2OCc2ccccc2)c1 [Compound 7b, (E)-3–(2-(3-(benzyloxy)-6-methyl-4-oxo-4H-pyran-2-yl)vinyl)phenyl ethyl(methyl)carbamate] | > 20000 nM |  | 631 ± 155 nM | 157 ± 13.3 nM | 
24 | CN1C(C(=O)Nc2ccccn2)=C(O)c2sccc2S1(=O)=O [Tenoxicam] |  |  |  |  | Papp at 10 h, 25 μg/mL ([6]; PAMPA): 0.35 ± 0.16 ×10⁻⁶ cm/s; CNS (±) [6]: CNS - (CNS -: (low BBB permeability), Pe (×10^−6 cm/s) < 2.03); Pe(ref.) [11]: 1e-07 cm/s
25 | CCn1cc(C(=O)O)c(=O)c2cc(F)c(N3CCNCC3)cc21 [Norfloxacin] |  |  |  |  | Papp at 10 h, 25 μg/mL ([6]; PAMPA): 0.18 ± 0.03 ×10⁻⁶ cm/s; CNS (±) [6]: CNS - (CNS -: (low BBB permeability), Pe (×10^−6 cm/s) < 2.03); Pe(ref.) [11]: 1e-07 cm/s
